Square brackets hold non-standard residues; d marks the D form. Ends that are not written are not given here. Peptide text beside a SMILES is read from it. d2Nal = N[C@H](Cc1ccc2ccccc2c1)C(=O)O; Aib = CC(C)(N)C(=O)O
Assays:
[1] = system: ferrets treated with cisplatin; experiment: Anti-emetic response assay in ferrets treated with cisplatin; format: in vivo, ferret; details: for average vomiting episodes during the 4-hour observation period / average retching episodes during the 4-hour observation period: cisplatin 10 mg/kg i.p., two i.v. injections 30 min apart, ghrelin 0.25, ipamorelin 1.0 mg/kg/dose; for average vomiting episodes during the 4-hour observation period: saline control 1.78; for average retching episodes during the 4-hour observation period: saline control 4.89; for anti-emetic efficacy relative to control animals, conclusion in words: i.v., ghrelin 0.25 mg/kg/dose, ipamorelin 1.0 mg/kg/dose; for onset time of emetic response following cisplatin administration (latent period): vs saline control, 4-hour observation
Text: The purpose of this study was to evaluate the anti-emetic response of Ipamorelin following a single intravenous injection (slow bolus) in ferrets treated with cisplatin.
30 male ferrets (24-weeks old) were used in this experiment. Subsequent to arrival, all animals were subjected to a general physical examination by a qualified member of the veterinary staff to ensure normal health status. An acclimation period of at least one week was allowed between the animal receipt and the start of treatment in order to accustom the animals to the laboratory environment.
Animals were randomized into the following groups:
Dosing occurred on consecutive days with approximately equal numbers of animals from each group being dosed on each day. Immediately following a single intraperitoneal injection of cisplatin, the controUreference/test article was administered via a slow intravenous injection via the cephalic or saphenous vein. Thirty minutes later, a second slow intravenous injection of the controUreference/test article was administered via a slow intravenous injection via the cephalic or saphenous vein. On each occasion, the dose volume was 5 mL/kg (cisplatin as well as control/reference/test article) and the actual dose administered was based on the most recent practical body weight of each animal.
Following dosing, the ferrets were monitored and observed for episodes of emesis for an approximate four hour period, which was subdivided into 10-minute intervals. The time prior to the first episode of retching or vomiting was recorded (latent period), as well the total number of retching and vomiting periods, over each 10-minute interval, through the overall observation period (4 hours post dose).
For the purposes of this study, episodes of emesis were defined as rhythmic abdominal contractions associated with oral expulsion of solid or liquid material from the gastrointestinal tract (i.e. vomiting) or not associated with the passage of material (i.e. retching). An episode of retching and/or vomiting was considered separate when an animal changed position in the cage or when the interval between retches and/or vomits exceeds an approximate 5 second period.
The anti-emetic response was evaluated using the individual observation for: the latent period, the average of retching episodes per 10-minute interval with presence of retching, the average of vomiting episodes per 10-minute interval with presence of vomiting, the total frequency of retching episodes for the observation period, the total frequency of vomiting episodes for the observation period, the total number of 10-minute intervals with presence of retching and the total number of 10-minute intervals with presence of vomiting. Whenever there was no retching or vomiting episode for the whole animal observation period, the latent period was set to 4 hours and the average of retching/vomiting episodes per interval with presence of retching/vomiting was set to zero. Each of these seven parameters was submitted to the following statistical comparison.
The non-parametric Kruskal-Wallis test was used to compare all considered groups. If the Kruskal-Wallis test was significant (p<0.05), then the Saline Control group was compared to each treated group using Dunn's test.

cancer patients [2] = experiment: 12 week double blind, placebo controlled, randomized parallel study, Anderson Symptom Assessment System (ASAS) test; format: in vivo, human; details: 12 weeks
Text: A double blind, placebo controlled, randomized study was designed to investigate the ability of growth hormone secretagogues to be used for the treatment of emetic conditions.
82 human subjects were enrolled in a 12 week parallel study. Of the 82 subjects, 74 subjects were classified in the intent to treat group (ITT). These 74 subjects all had active cancer, received at least one dose of study medication, and had at least one post-dose efficacy measurement. The 74 subjects were separated into two groups: the placebo group and the RC-1291 group. 30 of the 36 placebo group subjects and 33 of the 38 RC-1291 group subjects were receiving some form of chemotherapy. The RC-1291 group received 50 mg of RC-1291 in two 25 mg capsules daily. The placebo group received two capsules daily.
The effect of RC-1291 administered to cancer patients was compared to the effect of placebo administered to a similar group of patients. In order to determine the ability of RC-1291 to reduce a subject's cancer symptom burden, i.e. Quality-of-Life, subjects were administered the Anderson Symptom Assessment System (ASAS) test prior to, during and at the completion of the study. The ASAS test is conducted by asking subjects to rate on a 0-10 scale the severity of 10 symptoms: pain, fatigue, nausea, depression, anxiety, drowsiness, shortness of breath, appetite, sleep and feeling of well being (see, Palmer et al. (2005) J. Pain and Symptom Management 6:565-571). The text below reflects and inversion of the ASAS scores such that higher values reflect a better Quality-of-Life: […]

cancer patients [3] = experiment: Separate crossover study (3 days treatment), ASAS nausea symptom scale; format: in vivo, human
Description: The effect of RC-1291 administered to cancer patients was compared to the effect of placebo administered to a similar group of patients. In order to determine the ability of RC-1291 to reduce a subject's cancer symptom burden, i.e. Quality-of-Life, subjects were administered the Anderson Symptom Assessment System (ASAS) test prior to, during and at the completion of the study. The ASAS test is conducted by asking subjects to rate on a 0-10 scale the severity of 10 symptoms: pain, fatigue, nausea, depression, anxiety, drowsiness, shortness of breath, appetite, sleep and feeling of well being (see, Palmer et al. (2005) J. Pain and Symptom Management 6:565-571). The text below reflects and inversion of the ASAS scores such that higher values reflect a better Quality-of-Life:
In a separate crossover study, 16 cancer patients were treated with RC-1291 or placebo as described above for 3 days, washed out for ˜5 days and then administered placebo or RC-1291 (whichever one they had not received in the initial 3 day period). 12 of 16 placebo group subjects and 11 of the 16 RC-1291 group subjects were receiving some form of chemotherapy.

Molecule | average vomiting episodes during the 4-hour observation period [1] | average retching episodes during the 4-hour observation period [1] | anti-emetic efficacy relative to control animals, conclusion in words [1] | reduction in number of retching episodes compared to saline control animals ([1]; ipamorelin 1.0 mg/kg/dose i.v., p<0.05) [%] | reduction in vomiting episodes relative to saline control animals ([1]; ipamorelin 1.0 mg/kg/dose i.v., p>0.05) | onset time of emetic response following cisplatin administration (latent period) [1] | increase in total ASAS score relative to baseline (cancer patients [2]; 50 mg daily in two 25 mg capsules, inverted ASAS scores (higher = better Quality-of-Life), placebo decrease of 5.13) | overall difference in total ASAS score between the two groups (cancer patients [2]; RC-1291 50 mg daily vs placebo, p-0.0287) | ASAS nausea symptom scale, overall difference between treatment groups (cancer patients [2]; RC-1291 50 mg daily vs placebo, p=0.0046) | onset of anti-nausea effects (cancer patients [3]) [days] | ASAS nausea symptom scale, overall difference between treatments (cancer patients [3]; RC-1291 vs placebo, p=0.0756) | nausea (ASAS nausea symptom scale), result in words (cancer patients [3]; increased nausea with placebo)
CC(C)(N)C(=O)N[C@@H](Cc1c[nH]cn1)C(=O)N[C@H](Cc1ccc2ccccc2c1)C(=O)N[C@H](Cc1ccccc1)C(=O)N[C@@H](CCCCN)C(N)=O [Ipamorelin] (H-[Aib]H[d2Nal][dF]K-NH2) | 0.75 | 1.14 | significantly decreased the number of retching episodes | 82 | failed to reach statistical significance | modest, non-statistically significant (p>0.05) delay |  |  |  |  |  | 
CN(C)N(C)C(=O)[C@@]1(Cc2ccccc2)CCCN(C(=O)[C@@H](Cc2c[nH]c3ccccc23)NC(=O)C(C)(C)N)C1 [RC-1291] |  |  |  |  |  |  | 1.52 | 6.66 | 1.46 | ≤ 3 | 0.71 | Decreased nausea
Ghrelin: ghrelin peptide, reference article in the ferret study (GSSFLSPEHQRVQQRKESKKPPAKLQPR; ends and bridges not checked; UniProt Q9UBU3 24-51, looked up) [reference compound] | 1.60 | 7.00 | did not display a significant efficacy |  |  | Neither the onset time nor the numbers of retches or vomits were statistically different |  |  |  |  |  | 

— patent US20120232113A1, “METHODS OF TREATING EMESIS USING GROWTH HORMONE SECRETAGOGUES” (HELSINN THERAPEUTICS (U.S.), INC., priority 2007, published 2012)
